Source: patent US20230042729A1, “PEPTIDE CONSTRUCTS AND COMPOSITIONS” (DIET4LIFE APS, priority 2019, published 2023)
No end group written: not given here.

What was measured:
murine intestinal cells = murine intestinal cells (Mus musculus, UniProt O88319); assay: Ca2+ flux / calcium response assay (cell signaling activity); assay type: cell-based
Protocol: Ca^2+ Flux Assay/Calcium Response Assay:
Elevation of intracellular calcium level was measured using the fluorescent calcium chelating dye Fluo-4 AM (ThermoFischer Scientific, Denmark). Briefly, cells were grown as a monolayer in 96-well tissue culture plates (Sarstedt, Germany) to near confluence in appropriate growth medium as described in the cell culture section.
All test compounds were dissolved in water, and then diluted in 1×HBSS containing 25 mM HEPES (pH 7.4), 1% BSA and 2% ink. […]

[1] = Stability of peptides in serum, remaining activity read in intestinal cells; assay type: in vitro ADME, Bovine; settings: for Stability in serum (activity remaining): octapeptides, fraction of peptide activity left after 10 min of incubation in serum at 37° C. compared with undigested sample
Protocol: All peptides were incubated at 10^−5 M with Fetal Bovine Serum (FBS; final concentration of 66.7%) (Sigma Aldrich, Denmark) at 37° C. for 3 hours. The peptide degradation was terminated using 1 M phosphoric acid (final 0.4 M, pH˜1.2) and neutralized to pH 7.2-7.4 with NaOH before testing activity in intestinal cells. As for small intestine homogenates, a zero degradation control was included for each peptide.
DC7-2, NT, DKPYIL and NT-(8-13) (final concentration of 10^−6 M) were incubated either with FBS or with 270× diluted intestinal homogenate at 37° C. for various time points with shaking. Degradation was stopped with 1 M phosphoric acid and the samples were subsequently neutralized and immediately tested with intestinal cells as described above. Control for zero degradation was included for each peptide as above.
(§1) The 20 hexapeptides with systematic N-terminal substitutions (X-KPYIL) (Schafer-N, Denmark) and NT (8-13) was incubated at 10^−6 M in either FBS for 10 minutes or with 270× diluted intestinal homogenate for 30 minutes at 37° C. with shaking. The degradation was stopped with 1 M phosphoric acid. Peptide solutions were neutralized with NaOH (pH 7.2-7.4), diluted and immediately tested for bioactivity using murine intestinal cells. Determination of EC50 for stimulation of cells allowed calculation of recovered peptide.

[2] = Stability of peptides in intestine homogenate, remaining activity read in intestinal cells; assay type: in vitro ADME, mice; settings: for Stability in intestine (activity remaining): octapeptides, % activity left after 30 min incubation in intestine homogenate at 37° C.
Protocol: Small intestines from 20 Swiss-Webster males were homogenized in 350 ml Dulbecco's phosphate-buffered saline (PBS) (pH 7.4) (ThermoFischer Scientific, Denmark) with a IKA® basic 18 Ultra-Turrax tissue homogenizer set a speed 5 followed by filtration using 100 μm nylon mesh filter. Protein concentration was 6 mg/ml using the bicinconinic acid assay (ThermoFischer Scientific, Denmark) and bovine serum albumin as standard. The intestine homogenate was diluted 10 times in HBSS containing 25 mM HEPES (pH 7.4), and further diluted 30×, 90×, 270×, 810× or 2430× before incubation with peptides. All solutions were prewarmed to 37° C. before mixing with peptide solutions.
Peptides were incubated at 10^−5 M with dilutions of small intestine homogenate at 37° C. for 90 minutes with shaking. Reactions were stopped by addition of 1 M phosphoric acid (final 0.4 M, pH˜1.2). Each peptide incubation mix was then neutralized with NaOH to pH 7.2-7.4 and immediately tested for activity in intestinal cells. Control for zero degradation, i.e. addition of 1 M phosphoric acid prior to addition of intestine homogenate, was included for each peptide. […]
as §1

[3] = molecular target: trypsin inhibitor T9253 from chicken egg white (UniProt P01005)
[4] = molecular target: T1, trypsin inhibitor, T9128 from soybean (UniProt P01070)
T1 sequence: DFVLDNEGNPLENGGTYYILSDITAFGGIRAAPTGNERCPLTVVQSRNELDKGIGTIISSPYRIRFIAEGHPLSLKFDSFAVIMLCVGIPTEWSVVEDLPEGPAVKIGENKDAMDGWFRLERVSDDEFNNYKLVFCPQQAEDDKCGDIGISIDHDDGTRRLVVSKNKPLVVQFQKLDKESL

Sequence of murine intestinal cells (O88319 whole entry): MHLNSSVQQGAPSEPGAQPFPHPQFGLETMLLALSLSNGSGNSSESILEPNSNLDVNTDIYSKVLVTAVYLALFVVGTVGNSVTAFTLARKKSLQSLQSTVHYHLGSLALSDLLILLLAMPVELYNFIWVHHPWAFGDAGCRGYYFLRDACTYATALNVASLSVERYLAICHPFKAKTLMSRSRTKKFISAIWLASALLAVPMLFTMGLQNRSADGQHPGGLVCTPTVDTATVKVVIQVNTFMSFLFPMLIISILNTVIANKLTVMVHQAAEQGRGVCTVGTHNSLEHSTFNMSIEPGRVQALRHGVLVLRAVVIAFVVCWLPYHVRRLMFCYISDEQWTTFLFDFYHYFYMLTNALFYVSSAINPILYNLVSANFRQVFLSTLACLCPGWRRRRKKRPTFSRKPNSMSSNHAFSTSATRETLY
Sequence of trypsin inhibitor T9253 from chicken egg white (P01005 25-210): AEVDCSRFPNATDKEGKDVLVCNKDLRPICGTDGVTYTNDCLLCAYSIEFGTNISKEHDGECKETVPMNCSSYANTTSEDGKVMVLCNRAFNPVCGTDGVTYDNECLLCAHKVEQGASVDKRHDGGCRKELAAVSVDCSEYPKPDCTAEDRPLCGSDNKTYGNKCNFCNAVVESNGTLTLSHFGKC

Compound	EC50 (murine intestinal cells)	also measured
CC[C@H](C)[C@H](NC(=O)[C@H](Cc1ccc(O)cc1)NC(=O)[C@@H]1CCCN1C(=O)[C@@H](N)CCCNC(=N)N)C(=O)N[C@@H](CC(C)C)C(=O)O [Peptide 36010, R PYIL]	1.18 nM	–
ADKPYIL [Peptide 36016, A DKPYIL]	3.52 nM	–
APYIL [Peptide 35996, A PYIL]	11.8 nM	–
CDKPYIL [Peptide 36017, C DKPYIL]	7.72 nM	–
CPYIL [Peptide 35997, C PYIL]	69.9 nM	–
CSDKPYIL [Peptide 36037, C SDKPYIL]	5.44 nM	Stability in serum (activity remaining) [1]: 0.0963; Stability in intestine (activity remaining) [2]: 14.0%
DDKPYIL [Peptide 36018, D DKPYIL]	10.5 nM	–
DKPYIL [Peptide 35978, D KPYIL]	–	stability in serum compared to neurotensin (8-13) RRPYIL [1]: around 100 times; stability in intestine homogenate compared to neurotensin (8-13) RRPYIL [2]: 100-1000 ×
DPYIL [Peptide 35998, D PYIL]	158 nM	–
DSDKPYIL [Peptide 36038, D SDKPYIL]	6.15 nM	Stability in serum (activity remaining) [1]: 0.0947; Stability in intestine (activity remaining) [2]: 29.9%
EDKPYIL [Peptide 36019, E DKPYIL]	3.96 nM	–
EPYIL [Peptide 35999, E PYIL]	102 nM	–
ESDKPYIL [Peptide 36039, E SDKPYIL]	4.82 nM	Stability in serum (activity remaining) [1]: 0.0964; Stability in intestine (activity remaining) [2]: 23.0%
FDKPYIL [Peptide 36020, F DKPYIL]	9.52 nM	–
FPYIL [Peptide 36000, F PYIL]	19.5 nM	–
FSDKPYIL [Peptide 36040, F SDKPYIL]	3.85 nM	Stability in serum (activity remaining) [1]: 0.0944; Stability in intestine (activity remaining) [2]: 3.4%
GDKPYIL [Peptide 36021, G DKPYIL]	2.91 nM	–
GPYIL [Peptide 36001, G PYIL]	17.4 nM	–
GSDKPYIL [Peptide 36041, G SDKPYIL]	4.07 nM	Stability in serum (activity remaining) [1]: 0.0912; Stability in intestine (activity remaining) [2]: 10.3%
HDKPYIL [Peptide 36022, H DKPYIL]	2.65 nM	–
HPYIL [Peptide 36002, H PYIL]	35.6 nM	–
HSDKPYIL [Peptide 36042, H SDKPYIL]	3.63 nM	Stability in serum (activity remaining) [1]: 0.0980; Stability in intestine (activity remaining) [2]: 6.4%
IDKPYIL [Peptide 36023, I DKPYIL]	4.77 nM	–
IKPYIL [Peptide 35983, I KPYIL]	0.24 nM	–

Compound	EC50 (murine intestinal cells)	also measured
IPYIL [Peptide 36003, 1 PYIL]	23.8 nM	–
ISDKPYIL [Peptide 36043, I SDKPYIL]	6.87 nM	Stability in serum (activity remaining) [1]: 0.0956; Stability in intestine (activity remaining) [2]: 6.0%
KDKPYIL [Peptide 36024, K DKPYIL]	11.2 nM	–
KPYIL [Peptide 36004, K PYIL]	7.71 nM	–
KSDKPYIL [Peptide 36044, K SDKPYIL]	10.7 nM	Stability in serum (activity remaining) [1]: 0.0527; Stability in intestine (activity remaining) [2]: 6.6%
LDKPYIL [Peptide 36025, L DKPYIL]	6.41 nM	–
LKPYIL [Peptide 35985, L KPYIL]	0.33 nM	–
LPYIL [Peptide 36005, L PYIL]	41 nM	–
LSDKPYIL [Peptide 36045, L SDKPYIL]	8.06 nM	Stability in serum (activity remaining) [1]: 0.0917; Stability in intestine (activity remaining) [2]: 7.9%
MDKPYIL [Peptide 36026, M DKPYIL]	6.08 nM	–
MKPYIL [Peptide 35986, M KPYIL]	0.388 nM	–
MPYIL [Peptide 36006, M PYIL]	16.2 nM	–
MSDKPYIL [Peptide 36046, M SDKPYIL]	4.88 nM	Stability in serum (activity remaining) [1]: 0.0762; Stability in intestine (activity remaining) [2]: 3.8%
NDKPYIL [Peptide 36027, N DKPYIL]	5.92 nM	–
NKPYIL [Peptide 35987, N KPYIL]	0.5 nM	–
NPYIL [Peptide 36007, N PYIL]	39.3 nM	–
NSDKPYIL [Peptide 36047, N SDKPYIL]	4.41 nM	Stability in serum (activity remaining) [1]: 0.0872; Stability in intestine (activity remaining) [2]: 3.9%
PDKPYIL [Peptide 36028, P DKPYIL]	4.67 nM	–
PKPYIL [Peptide 35988, P KPYIL]	0.232 nM	–
PPYIL [Peptide 36008, P PYIL]	9.61 nM	–
PSDKPYIL [Peptide 36048, P SDKPYIL]	4.14 nM	Stability in serum (activity remaining) [1]: 0.0772; Stability in intestine (activity remaining) [2]: 4.6%
QDKPYIL [Peptide 36029, Q DKPYIL]	4.97 nM	–
QKPYIL [Peptide 35989, Q KPYIL]	0.378 nM	–
QPYIL [Peptide 36009, Q PYIL]	20.5 nM	–

Compound	EC50 (murine intestinal cells)	also measured
QSDKPYIL [Peptide 36049, Q SDKPYIL]	4.01 nM	Stability in serum (activity remaining) [1]: 0.0742; Stability in intestine (activity remaining) [2]: 8.8%
RDKPYIL [Peptide 36030, R DKPYIL]	4.68 nM	–
RSDKPYIL [Peptide 36050, R SDKPYIL]	4.01 nM	Stability in serum (activity remaining) [1]: 0.0735; Stability in intestine (activity remaining) [2]: 2.6%
SDKPYIL [Peptide 36031, S DKPYIL]	5 nM	–
SKPYIL [Peptide 35991, S KPYIL]	1.15 nM	–
SPYIL [Peptide 36011, S PYIL]	22.5 nM	–
SSDKPYIL [Peptide 36051, S SDKPYIL]	4.27 nM	Stability in serum (activity remaining) [1]: 0.0609; Stability in intestine (activity remaining) [2]: 19.5%
TDKPYIL [Peptide 36032, T DKPYIL]	5.61 nM	–
TKPYIL [Peptide 35992, T KPYIL]	1.16 nM	–
TPYIL [Peptide 36012, T PYIL]	43.6 nM	–
TSDKPYIL [Peptide 36052, T SDKPYIL]	5.63 nM	Stability in serum (activity remaining) [1]: 0.0535; Stability in intestine (activity remaining) [2]: 8.4%
VDKPYIL [Peptide 36033, V DKPYIL]	4.94 nM	–
VKPYIL [Peptide 35993, V KPYIL]	1.17 nM	–
VPYIL [Peptide 36013, V PYIL]	37.8 nM	–
VSDKPYIL [Peptide 36053, V SDKPYIL]	5.15 nM	Stability in serum (activity remaining) [1]: 0.0488; Stability in intestine (activity remaining) [2]: 5.6%
WDKPYIL [Peptide 36034, W DKPYIL]	14.1 nM	–
WKPYIL [Peptide 35994, W KPYIL]	5.58 nM	–
WSDKPYIL [Peptide 36054, W SDKPYIL]	8.87 nM	Stability in serum (activity remaining) [1]: 0.0426; Stability in intestine (activity remaining) [2]: 3.6%
YDKPYIL [Peptide 36035, Y DKPYIL]	6.83 nM	–
YKPYIL [Peptide 35995, Y KPYIL]	3.34 nM	–
YPYIL [Peptide 36015, Y PYIL]	140 nM	–
YSDKPYIL [Peptide 36055, Y SDKPYIL]	5.92 nM	Stability in serum (activity remaining) [1]: 0.0491; Stability in intestine (activity remaining) [2]: 3.0%
trypsin in intestine homogenate (mouse small intestine)	–	trypsin activity (conversion of L-BAPA, slope of kinetic absorbance) [3]: Intestinal and pancreatic trypsin activity was inhibited in a dose-dependent manner by two specific trypsin inhibitors from soybean and chicken egg white, respectively; trypsin activity (conversion of L-BAPA, slope of kinetic absorbance) [4]: Intestinal and pancreatic trypsin activity was inhibited in a dose-dependent manner by two specific trypsin inhibitors from soybean and chicken egg white, respectively
